Results on one compound are retold here after ChEMBL document CHEMBL1136840 (Bioorg Med Chem Lett, 2009).

Broadly, the Ki is a dissociation constant, usually derived from enzyme kinetics or from competition with a known ligand. High values mean lower affinity, low ones higher affinity.

This experiment addresses T1, Carbonic anhydrase 15 (Mus musculus, UniProt Q99N23).
T1 sequence (Q99N23 whole entry): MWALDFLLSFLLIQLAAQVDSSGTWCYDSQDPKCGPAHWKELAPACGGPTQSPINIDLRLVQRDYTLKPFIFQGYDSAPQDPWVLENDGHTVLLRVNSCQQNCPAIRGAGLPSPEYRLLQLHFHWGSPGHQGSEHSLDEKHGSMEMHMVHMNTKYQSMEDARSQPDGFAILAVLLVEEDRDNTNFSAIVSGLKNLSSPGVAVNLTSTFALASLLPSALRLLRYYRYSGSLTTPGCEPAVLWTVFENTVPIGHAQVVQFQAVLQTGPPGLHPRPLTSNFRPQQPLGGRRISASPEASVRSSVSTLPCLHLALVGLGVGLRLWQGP

`NS(N)(=O)=O` [SULFAMIDE] had a Ki of 37.4 µM.
